PubChem BioAssay (NCI)
Values joined by “and” are separate entries in the source; they are usually repeats but may differ in a detail not shown here. Equal values may be shown once.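 Tested at 5 concentrations; 48 h exposure; 96-well plates; endpoints linearly interpolated, else capped at highest concentration. Abbreviation: GI50, concentration required for 50% inhibition of growth. TGI denotes the concentration required for complete inhibition of growth.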

How the values were obtained:
Experiment in all cases: NCI tumour cell line growth inhibition, 48 h
UACC-257 melanoma = tested on: UACC-257 melanoma
SR leukemia = tested on: SR leukemia
CAKI-1 renal = tested on: CAKI-1 renal
IGROV1 ovarian = tested on: IGROV1 ovarian
SF-295 CNS = tested on: SF-295 CNS
SK-MEL-5 melanoma = tested on: SK-MEL-5 melanoma
RXF 393 renal = tested on: RXF 393 renal
SNB-75 CNS = tested on: SNB-75 CNS
RPMI-8226 leukemia = tested on: RPMI-8226 leukemia
ACHN renal = tested on: ACHN renal

| Structure (SMILES) | TGI (UACC-257 melanoma) [µM] | TGI (SR leukemia) | TGI (CAKI-1 renal) | TGI (IGROV1 ovarian) | TGI (SF-295 CNS) | TGI (SK-MEL-5 melanoma) | TGI (RXF 393 renal) | TGI (SNB-75 CNS) | TGI (RPMI-8226 leukemia) | TGI (ACHN renal) | GI50 (UACC-257 melanoma) | GI50 (SR leukemia) [µM] | GI50 (CAKI-1 renal) | GI50 (IGROV1 ovarian) | GI50 (SF-295 CNS) [µM] | GI50 (SK-MEL-5 melanoma) [µM] | GI50 (RXF 393 renal) [µM] | GI50 (SNB-75 CNS) | GI50 (RPMI-8226 leukemia) [µM] | GI50 (ACHN renal) [µM] |
| --- | --- | --- | --- | --- | --- | --- | --- | --- | --- | --- | --- | --- | --- | --- | --- | --- | --- | --- | --- | --- |
| CN(C)CC/[N+]([O-])=C(/c1ccccc1)C12CC3CC(CC(C3)C1)C2 | 29.9 | 43.9 µM | 31.5 µM | 33.9 µM | 27.5 µM | 32 µM | 32.9 µM | 24.7 µM | 42.7 µM | 29.8 µM | – | – | – | – | – | – | – | – | – | – |
| Cc1cccc(NC(=O)c2cccc([N+](=O)[O-])c2O)c1C | > 79.3 | > 100 µM | > 100 µM | > 100 µM | 80.1 µM | 27.6 µM | 53.6 µM | 81.1 µM | > 87.3 µM | > 100 µM | – | – | – | – | – | – | – | – | – | – |
| Cc1cc(C)cc(NC(N)=S)c1 | > 100 | > 100 µM | > 100 µM | > 100 µM | > 100 µM | > 100 µM | 98.1 µM | > 100 µM | > 100 µM | > 100 µM | – | – | – | – | – | – | – | – | – | – |
| Cc1cc(Cl)ccc1NC(=O)CC1SC(=Nc2ccccc2Cl)NC1=O (stereo unspecified) | > 100 | 70.2 µM | > 100 µM | > 100 µM | > 100 µM | > 100 µM | 84.3 µM | > 100 µM | > 100 µM | > 100 µM | – | – | – | – | – | – | – | – | – | – |
| CC1OC(n2cc(F)c(=O)[nH]c2=O)C=CC1=O (stereo unspecified) | 32.2 | 55.8 µM | 31.1 µM | > 100 µM | 31 µM | 31.4 µM | 30.4 µM | 32.5 µM | 93.2 µM | 31.9 µM | – | – | – | – | – | – | – | – | – | – |
| Cc1cnc(C(=O)Nc2nc3ccc(S(=O)(=O)Nc4ccc(C5(C(F)(F)F)CC5)cc4)cc3[nH]2)cn1 | 29.9 | > 39.5 µM | 15.7 µM | 5.02 µM | 3.27 µM | 3.85 µM | 1.11 µM | 0.786 µM | 6.86 µM | 14 µM | 5.13 µM | 0.0777 | 0.36 µM | 0.606 µM | 0.237 | 0.232 | 0.226 | 0.183 µM | 0.354 | 0.552 |
| N#CC1CC2(CCN1C(=O)c1ccccc1)OCCO2 (stereo unspecified) | > 100 | > 100 µM | > 100 µM | > 100 µM | > 100 µM | > 100 µM | > 100 µM | > 100 µM | > 100 µM | > 100 µM | – | – | – | – | – | – | – | – | – | – |
| CN(C)c1ccc(/C=C/c2cc[n+](C)c(/C=C/c3ccc(N(C)C)cc3)c2)cc1 | 0.853 | 2.45 µM | 7.4 µM | 3.43 µM | 1.32 µM | 0.465 µM | 1.91 µM | 2.33 µM | 0.675 µM | 2.4 µM | 0.275 µM | 0.309 | 1.42 µM | 0.821 µM | 0.27 | 0.204 | 0.389 | 0.253 µM | 0.123 | 0.401 |
| NCCCNCCCCNC(=O)C(O)NC(=O)CCCCCCN=C(N)N (stereo unspecified) | > 5000 | 750 µM and > 4240 µM | 710 µM and > 5000 µM | 750 µM and > 5000 µM | 608 µM and > 4710 µM | > 750 µM and 2820 µM | 750 µM and > 5000 µM | 671 µM and > 3170 µM | 750 µM and > 3790 µM | > 5000 µM | > 4100 µM | 530 | 540 µM and > 3340 µM | 2620 µM | 1400 | 1730 | 3480 | > 1870 µM | 1770 | 2750 |
| CCCCCCCc1cc2c3c(nc4ccccc42)C(=O)c2cccnc2-c3n1 | 3.46 | 10.7 µM | 9.51 µM | 15.1 µM | 7.32 µM | 8.37 µM | 11.1 µM | 10.1 µM | 12.6 µM | 8.19 µM | 1.96 µM | 3.02 | 4.6 µM | 3.28 µM | 3.45 | 4.16 | 5.67 | 5.11 µM | 4.27 | 4.08 |
| Cc1ccc(O)c(NC(=O)c2ccc(CNc3ccnc(C(F)(F)F)c3)cc2)c1 | 48.5 | 30 µM | 40.6 µM | 16.4 µM | 12.2 µM | 14.7 µM | 63.1 µM | 90.3 µM | 11.3 µM | > 100 µM | 12.2 µM | 5.1 | 6.33 µM | 1.82 µM | 1.35 | 4.07 | 25.4 | 22.5 µM | 2.64 | 3.66 |
| CCOC(=O)c1c2c(n3ccccc13)C(=O)c1ncccc1C2=O | 4.21 | > 100 µM | 28.5 µM | 42.7 µM | 11.3 µM | 1.51 µM | 13.9 µM | 13 µM | 19.5 µM | 6.24 µM | 0.28 µM | 0.0159 | 0.301 µM | 0.0987 µM | 1.31 | 0.142 | 0.0792 | 0.818 µM | 0.423 | 0.0343 |
| CCOC(=O)c1[nH]c(COC(C)=O)c2c1CCCCCCCCCC2 | > 100 | > 100 µM | > 100 µM | > 100 µM | > 100 µM | > 100 µM | > 100 µM | > 100 µM | > 100 µM | – | – | – | – | – | – | – | – | – | – | – |
| S=P(N1CC1)(N1CC1)N1CC1 | – | > 51.4 µM and 441 µM | – | 77.2 µM and 361 µM and 507 µM | – | – | 39.6 µM and 251 µM and 308 µM | 57.7 µM and 403 µM and 498 µM | 92.3 µM and 792 µM and 706 µM | 37.3 µM and 335 µM | 29 µM and 272 µM | – | 6.08 µM and 20 µM | 38.8 µM and 280 µM | 6.78 | – | 18.8 | 20.4 µM and 186 µM | 28 | 3.39 |
| CSc1nc(SC)c2c(CO)c(Br)n(Cc3ccccc3)c2n1 | – | > 100 µM | 23.6 µM | 39.3 µM | 40.9 µM | > 100 µM | 60.3 µM | 29.9 µM | > 100 µM | 44.7 µM | – | – | – | – | – | – | – | – | – | – |
| CCN(CC)c1ccc(N=Nc2ccc(-c3nc4ccc[n+](C)c4o3)cc2)cc1 | 20.2 | 20.9 µM | 26.3 µM | 30.8 µM | 27.9 µM | 11 µM | 22.6 µM | 24 µM | 7.38 µM | – | – | – | – | – | – | – | – | – | – | – |
